Assays:
VEGFR1 = VEGFR1 protein expression in L3.6pl cells (Western blot); type: cell-based, human; conditions: 50 μM, 48 h
Protocol: FIGS. 14A-14D show tolfenamic acid decreases expression of Sp and VEGFR1 proteins in pancreatic cancer cells. Tolfenamic acid effects on Panc-1 cells (FIG. 14A and FIG. 14B), and L3.6pl cells (FIG. 14C and FIG. 14D). Cells were treated with DMSO, 50 μM tolfenamic acid, or 50 μM ampiroxicam for 48 h, and whole cell lysates were analyzed by Western blot analysis. […] FIGS. 16A-16D show the interaction of Sp proteins with VEGFR1 promoter sequences. […] The specific Sp protein bands and antibody supershifted complexes are indicated with arrows. Effects of tolfenamic acid on VEGFR1 and Egr-1 protein expression in Panc-1 cells (FIG. 16C), and L3.6pl cells (FIG. 16D). […] Samples are electrophoresed, transferred to membranes, and proteins detected by incubation with polyclonal primary antibodies Sp1, Sp3, Sp4, HDAC, VEGF (a-20), c-Met, surviving, VEGF, cleaved PARP, and β-tubulin (H-235) followed by blotting with appropriate horseradish peroxidase-conjugated secondary antibody as previously described (Abdelrahim et al, 2004). After autoradiography, band intensities are determined by a scanning laser densitometer (Sharp Electronics Corporation, Mahwah, N.J.) using ZERO-D […] software (Scanalytics Corporation, Billerica, Mass.).

Panc-1 cells [1] = assay: Panc-1 cell migration (scratch) assay on collagen IV-coated plates; type: cell-based; conditions: 50 μM; for VEGF-B-induced cell migration: VEGF-B 50 ng/ml, 16 h
Protocol: Cells were pretreated with DMSO, 50 μM ampiroxicam, or 50 μM tolfenamic acid for 36 hr; VEGF-B (50 ng/ml) was added for 5 or 10 min, and whole cell lysates were obtained and analyzed by Western blot. Cell migration assay (FIG. 18C). […] Immunostaining of pancreatic tumors (FIG. 18D). Pancreatic tumors from athymic nude mice treated with solvent (control), gemcitabine (50 mg/kg), or tolfenamic acid (25 and 50 mg/kg) (Dick, 1996) were stained with VEGFR1 antibodies as described below and in a previous report (Dick, 1996).
Panc-1 cells were pretreated with DMSO, 50 μM ampiroxicam, or 50 μM tolfenamic acid for 48 h, and then were treated with VEGF-B (50 ng/ml) for 5 and 10 min. MAPK phosphorylation in the various treatment groups was then determined by western immunoblot analysis as described above. For migration assays, Panc-1 cells were seeded in triplicate in six-well collagen IV coated plates and then treated with the selected non-steroidal anti-inflammatory drugs for 24 h before the scratch was made. A scratch through the central axis of the plate was gently made using a sterile pipette tip. Cells were 70% confluent when the scratch was made. […] Results of this study were obtained at a 16 h time point and one plate was stained using DIFF QUIK (Dade Behring, Newark, Del.).
Previous studies have reported that activation of VEGFR1 by VEGF-B in pancreatic cancer cells results in enhanced phosphorylation of MAPK and increased cell migration and invasion. […] The importance of Sp protein in VEGFR1-dependent Panc-1 cell migration was determined using a cell migration assay on collagen IV-coated plates.

Panc-1 cells [2] = assay: Cell proliferation assay, Panc-1 cells; type: cell-based; conditions: for growth of Panc-1 pancreatic cancer cells: different concentrations, 6 days, cell counting
Protocol: FIGS. 6A-6E show comparative effects of non-steroidal anti-inflammatory drugs on Panc-1 cell proliferation and Sp protein expression. Effects of tolfenamic acid (FIG. 6A), ampiroxicam (FIG. 6B), naproxen (FIG. 6C), and diclofenac sodium (FIG. 6D) on Panc-1 cell proliferation. Panc-1 cells were treated with different concentrations of non-steroidal anti-inflammatory drugs for 6 days, and the number of cells were determined on days 2, 4, and 6 by cell counting techniques. […] Panc-1 cells were treated with DMSO, 150 μM ampiroxicam, 150 μM naproxen, and 50 μM tolfenamic acid for 48 hr, and levels of Sp proteins and the cleaved poly (ADP-ribose) polymerase (PARP) protein were determined in whole cell lysates by Western blot analysis. […] Panc1, Panc28 and L3.6pl cells are seeded in DMEM/F12 media with 5% FBS and treated the next day with either vehicle (DMSO) or with the indicated compounds' concentrations. Cells are counted at the indicated times using a Z1™ COULTER COUNTER® cell counter. Each experiment is carried out in triplicate and results expressed as means ±SD for each determination.

[3] = test system: Sp protein binding to GC-rich VEGF promoter oligonucleotide; assay: Gel mobility shift of nuclear extracts from Panc-1 cells with VEGF32P; type: cell-based; conditions: nuclear extracts of Panc-1 cells treated with 50 μM for 48 hr
Protocol: Vascular endothelial growth factor and VEGFR1 oligonucleotides are synthesized and annealed, and 5 pmol aliquots are 5′-end-labeled using T4 kinase and [y-^32P]ATP. After the reaction sample was incubated 20 min on ice, and antibodies against Sp1, Sp3, and Sp4 proteins are added and incubated another 20 min on ice. Protein-DNA complexes are resolved by 5% polyacrylamide gel electrophoresis as previously described (Abdelrahim et al, 2004; Abdelrahim et al, 2005, Abdelrahim et al, submitted 2005).
Panc1 or L3.6pl cells were treated with DMSO, 50 μM tolfenamic acid or 50 μM ampiroxicam for 48 hr. Nuclear extracts from these cells were isolated, incubated with VEGF^32P and analyzed in gel mobility shift assays.
The radiolabeled oligonucleotide contained a GC-rich region (−66 to −47) from the VEGF promoter that binds Sp proteins.

VEGF = assay: Immunostaining of VEGF in Panc-1 cells; type: cell-based; conditions: 50 μM, 48 hr
Protocol: Panc1 cells are seeded in LAB-TEK® chamber slides (Nalge Nunc International, Naperville, Ill.) at 100,000 cells/well in DME/F12 medium supplemented with 5% fetal bovine serum. Cells are treated with the selected non-steroidal anti-inflammatory drugs and after 48 hr, the media chamber is detached and the remaining glass slides washed in Dulbecco's phosphate buffered saline (PBS). The immunostaining for vascular endothelial growth factor (VEGF) is determined essentially as previously described (Abdelrahim et al, 2005). Briefly, the glass slides are fixed with cold (-20° C.) methanol for 10 min and washed in 0.3% PBS/Tween for 5 min (two times) before blocking with 5% goat serum in antibody dilution buffer (stock solution: 100 ml of PBS/Tween, Ig of bovine serum albumin, 45 ml of glycerol, pH 8.0) for 1 hr at 20° C. After removal of the blocking solution, VEGF rabbit polyclonal antibody (A-20) is added in antibody dilution buffer (1:200) and incubated for 12 hr at 4° C. Slides are washed for 10 min with 0.3% Tween in 0.02 M phosphate buffered saline (three times) and incubated with fluorescein isothiocyanate-conjugated (FITC) goat anti-rabbit antibodies (1:1000 dilution) for 2 hr at 20° C. Slides are then washed for 10 min in 0.3% PBS-Tween (four times). […]

SMILES	VEGFR1 protein levels, Western blot (VEGFR1)	cell migration in the absence of VEGF-B (Panc-1 cells [1]; 16 h time point, DMSO set at 100%)	VEGF-B-induced cell migration (Panc-1 cells [1])	relative potency in Panc-1 growth inhibition (Panc-1 cells [2]; compared with ampiroxicam and naproxen)	growth of Panc-1 pancreatic cancer cells (Panc-1 cells [2])	Sp3 and Sp1/Sp4 retarded bands with VEGF32P [3]	immunostaining of secreted vascular endothelial growth factor protein (VEGF)
Cc1c(Cl)cccc1Nc1ccccc1C(=O)O [tolfenamic acid]	decreased VEGFR1 protein levels	only significantly inhibited by tolfenamic acid	significantly inhibited VEGF-B-induced cell migration	exhibited higher potencies	decreased growth of Panc-1 pancreatic cancer cells	retarded bands were decreased	almost non-detectable
CCOC(=O)OC(C)OC1=C(C(=O)Nc2ccccn2)N(C)S(=O)(=O)c2ccccc21 (stereo not drawn) [ampiroxicam]	only the latter compound decreased VEGFR1 protein levels		inactive in all assays		decreased growth of Panc-1 pancreatic cancer cells	retarded bands of similar intensity	significant lawn of extracellular vascular endothelial growth factor staining

From US20080261911A1, “Uses of diphenyl/diphenylamine carboxylic acids” (priority 2006, published 2008)
